Biological target: T1, NPY5R (Homo sapiens, UniProt Q15761)
T1 construct: purchased Promega (in-house HiBiT-GPCR construct library, NanoBRET)
T1 sequence (Q15761 1-445): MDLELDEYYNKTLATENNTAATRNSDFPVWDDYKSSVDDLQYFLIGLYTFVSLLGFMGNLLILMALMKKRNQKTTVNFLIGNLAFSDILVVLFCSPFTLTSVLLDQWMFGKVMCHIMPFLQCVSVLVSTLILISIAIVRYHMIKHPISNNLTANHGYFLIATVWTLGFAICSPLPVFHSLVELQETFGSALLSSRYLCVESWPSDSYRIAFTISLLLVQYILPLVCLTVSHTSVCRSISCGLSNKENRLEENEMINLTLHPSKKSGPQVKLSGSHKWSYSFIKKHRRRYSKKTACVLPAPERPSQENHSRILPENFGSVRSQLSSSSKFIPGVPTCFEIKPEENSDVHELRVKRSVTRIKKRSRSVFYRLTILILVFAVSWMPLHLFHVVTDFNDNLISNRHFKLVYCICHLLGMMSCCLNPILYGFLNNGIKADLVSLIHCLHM
Assay: NanoBRET screen HiBiT-NPY5R in HEK293
Assay type: binding
Procedure: Each tracer candidate was screened across the entire library of HiBiT-GPCR constructs using NanoBRET as the detection modality. As depicted in Figure 4A, the specificity of interactions was evaluated through decrease in BRET due to competitive displacement of a bound tracer by excess parental compound. Each tracer was analyzed for binding to each HiBiT-GPCR fusion in the absence and in the presence of competing parental compound. Briefly, HEK293 cells were transfected with HiBiT-GPCR constructs diluted into promoterless DNA to reduce expression and maximize translocation to the cell surface. Each tracer candidate was then screened at concentrations of 1 μM and 0.1 μM across cells expressing these fusions. Cells were treated for 1.5 h with tracer either alone or in the presence of 20 μM competing parental compound (i.e., control). BRET was measured upon addition of purified LgBiT and subsequent complementation with HiBiT genetically fused to a GPCR. The specificity of interactions was assessed through a decrease in BRET signal due to competitive displacement of the bound tracer. To further gauge the robustness of these interactions, the fold response over the control (i.e., BRETtracer/BRETcontrol) was calculated. We chose a 1.5-fold response, which translates to ≥7-fold signal over noise as the minimal threshold required to score an interaction as positive.
HiBiT-GPCR DNA constructs were diluted in 10 mM Tris pH 8 to a final concentration of 0.01 μg/μL, arrayed in 96-well plates and stored at −20 °C. For transfection, HEK293 cells were suspended in Opti-MEM (without phenol red) supplemented with 2% fetal bovine serum (Seradigm) and 100 units/mL penicillin–streptomycin (Gibco) at a final concentration of 220,000 cells/mL and dispensed into white 96-well plates at 90 μL/well. Subsequent transfections and screens were carried using an Agilent Bravo Automated Liquid Handling Platform. First, the 96-well HiBiT DNA arrays were diluted 25-fold in Opti-MEM (without serum or phenol red) to a final concentration of 0.0004 μg/μL and 20 μL of the diluted DNAs were transferred into new 96-well plates. Next, promoterless carrier DNA (1 μg/μL) was diluted 25-fold (0.04 μg/μL) and then dispensed into the diluted arrays at 20 μL/well. Following brief mixing, Viafect transfection reagent (Promega) diluted 16-fold into Opti-MEM was dispensed into the plates at 40 μL/well. After mixing by pipetting, plates were incubated for 10 min on the pipetting station deck. The DNA-transfection reagent complexes were then added to plates containing cells. To facilitate the screen, 10 μL of DNA-transfection reagent complexes were added in duplicates to the top 4 and bottom 4 rows, resulting in two identical 48-well arrays per plate. Plates with transfected cells were incubated for 18–20 h at 37 °C/5% CO2. A screen of each tracer across the entire library using two different concentrations requires duplicate plates of transfected cells. Depending on the number of tracers being screened, transfections can be scaled up using the same ratios. The next day, for each tracer, four 20× screening solutions in tracer dilution buffer (Promega) were prepared: two duplicates at final concentration of 20 μM and two duplicates at a final concentration of 2 μM. […] The four resulting solutions were diluted 4-fold in Opti-MEM without serum or phenol red to generate 5× solutions (5 µM and 0.5 µM tracer +/− 100 μM competing compound). To screen the library, a BioTek MultiFlo FX liquid dispenser was used to dispense 22.5 µL of tracer solution to the top 4 rows and 22.5 µL tracer + competing compound solution to the 4 bottom rows. Plates were briefly mixed on an orbital shaker and incubated for 1.5 h at room temperature. […] Plates were briefly mixed on an orbital shaker and incubated for 15 min to allow complementation.

## CCOC(=O)c1cc(C#N)c(N2CCC(C(=O)NS(=O)(=O)Cc3ccccc3/C=C/C(=O)NCCNC(=O)CCc3ccc4n3[B-](F)(F)[N+]3=C(c5ccc[nH]5)C=CC3=C4)CC2)nc1C [AZD1283-1-NB590]
NPY5R, 0.1μM
  NanoBRET Fold Response: 1.01
NPY5R, 1μM
  NanoBRET Fold Response: 1.03

## N#CN=C(NCCCOc1cccc(CN2CCCCC2)c1)NCCNC(=O)CCOCCOCCOCCOCCNC(=O)CCc1ccc2n1[B-](F)(F)[N+]1=C(c3ccc[nH]3)C=CC1=C2 [Aminopotentidine-2-NB590]
NPY5R, tracer 0.1μM
  NanoBRET Fold Response: 1.04
NPY5R, tracer 1μM
  NanoBRET Fold Response: 0.97

## CN(C)CCC=C1c2ccccc2CCc2ccc(C(=O)NCCNC(=O)CCOCCOCCOCCOCCNC(=O)CCc3ccc4n3[B-](F)(F)[N+]3=C(c5ccc[nH]5)C=CC3=C4)cc21 [Amitriptyline-a-2-NB590]
Tracer at 0.1μM
  NanoBRET Fold Response: 1.03
Tracer at 1μM
  NanoBRET Fold Response: 0.99

## CN(C)CCC=C1c2ccccc2CCc2ccc(C(=O)NCCNC(=O)CCOCCOCCOCCOCCNC(=O)CCc3ccc4n3[B-](F)(F)[N+]3=C(c5ccc[nH]5)C=CC3=C4)cc21 [Amitriptyline-b-2-NB590]
Tracer at 0.1μM, listed as amitriptyline-b-2-NB590
  NanoBRET Fold Response: 0.89
Tracer at 1μM, listed as amitriptyline-b-2-NB590
  NanoBRET Fold Response: 1.02

## COc1ccc2c(n1)c(CCNC(C)=O)cn2CCNC(=O)CCc1ccc2n1[B-](F)(F)[N+]1=C(c3ccc[nH]3)C=CC1=C2 [Azamelatonin-1-NB590]
0.1μM tracer
  NanoBRET Fold Response: 1.14
1μM tracer
  NanoBRET Fold Response: 1.09

## COc1ccc2[nH]c(-c3ccc(CNC(=O)CCOCCOCCOCCOCCNC(=O)CCc4ccc5n4[B-](F)(F)[N+]4=C(c6ccc[nH]6)C=CC4=C5)cc3)c(CCNC(C)=O)c2n1 [AzomelatoninICO9-2-NB590]
0.1μM tracer
  NanoBRET Fold Response: 0.91
1μM tracer
  NanoBRET Fold Response: 1.07

## O=C(CCOCCOCCOCCOCCNC(=O)CCc1ccc2n1[B-](F)(F)[N+]1=C(c3ccc[nH]3)C=CC1=C2)NCCCN1CCN(C2=Nc3cc(Cl)ccc3Nc3ccccc32)CC1 [Clozapine-a-2-NB590]
NPY5R, 0.1μM tracer
  NanoBRET Fold Response: 1.15
NPY5R, 1μM tracer
  NanoBRET Fold Response: 0.96

## CN1CCN(C2=Nc3cc(Cl)ccc3Nc3ccc(CNC(=O)CCOCCOCCOCCOCCNC(=O)CCc4ccc5n4[B-](F)(F)[N+]4=C(c6ccc[nH]6)C=CC4=C5)cc32)CC1 [Clozapine-b-2-NB590]
NPY5R, 0.1μM tracer
  NanoBRET Fold Response: 1.02
NPY5R, 1μM tracer
  NanoBRET Fold Response: 1.04

## CN1CCN(C2=Nc3cc(Cl)ccc3N(CC(=O)NCCOCCOCCOCCOCCNC(=O)CCc3ccc4n3[B-](F)(F)[N+]3=C(c5ccc[nH]5)C=CC3=C4)c3ccccc32)CC1 [Clozapine-c-2-NB590]
NPY5R, 0.1μM tracer
  NanoBRET Fold Response: 0.99
NPY5R, 1μM tracer
  NanoBRET Fold Response: 0.97

## O=C(CCOCCOCCOCCOCCNC(=O)CCc1ccc2n1[B-](F)(F)[N+]1=C(c3ccc[nH]3)C=CC1=C2)NCCCN1CCN(C2=Nc3ccccc3Oc3ccc(Cl)cc32)CC1 [Loxapine-a-2-NB590]
NPY5R, tracer 0.1μM
  NanoBRET Fold Response: 0.96
NPY5R, tracer 1μM
  NanoBRET Fold Response: 1.09

## COc1ccccc1N1CCN(CCCCN2C(=O)c3ccc(CNC(=O)CCOCCNC(=O)c4ccc(CNC(=O)CCc5ccc6n5[B-](F)(F)[N+]5=C(c7ccc[nH]7)C=CC5=C6)cc4)cc3C2=O)CC1 [NAN-190-3-NB590]
NPY5R, tracer 0.1μM
  NanoBRET Fold Response: 1.01
NPY5R, tracer 1μM
  NanoBRET Fold Response: 0.97

## Cc1cc2c(s1)Nc1ccccc1N=C2N1CCN(CCCNC(=O)CCOCCOCCOCCOCCNC(=O)CCc2ccc3n2[B-](F)(F)[N+]2=C(c4ccc[nH]4)C=CC2=C3)CC1 [Olanzapine-a-2-NB590]
NPY5R, tracer 0.1μM
  NanoBRET Fold Response: 1.00
NPY5R, tracer 1μM
  NanoBRET Fold Response: 1.01

## O=C(CCc1ccc2n1[B-](F)(F)[N+]1=C(c3ccc[nH]3)C=CC1=C2)NCc1ccc(C(=O)NCCOCCOCCNCC(O)COc2cccc3ccccc23)cc1 (stereo not drawn) [Propranolol-3-NB590]
NPY5R, 0.1μM
  NanoBRET Fold Response: 0.99
NPY5R, 1μM
  NanoBRET Fold Response: 1.01

## O=C(CCc1ccc2n1[B-](F)(F)[N+]1=C(c3ccc[nH]3)C=CC1=C2)NCCOCCOCCNC(=O)OCCOCCN1CCN(C2=Nc3ccccc3Sc3ccccc32)CC1 [Quetiapine-a-2-NB590]
NPY5R, tracer 0.1μM
  NanoBRET Fold Response: 0.98
NPY5R, tracer 1μM
  NanoBRET Fold Response: 0.87

## Cc1nc2n(c(=O)c1CCN1CCC(c3noc4cc(F)ccc34)CC1)CCCC2OC(=O)NCCOCCOCCOCCOCCNC(=O)CCc1ccc2n1[B-](F)(F)[N+]1=C(c3ccc[nH]3)C=CC1=C2 (stereo not drawn) [Risperidone-2-NB590]
NPY5R, tracer 0.1μM
  NanoBRET Fold Response: 0.97
NPY5R, tracer 1μM
  NanoBRET Fold Response: 0.96

## CC(C)N(CC[C@H](c1ccccc1)c1cc(CCNC(=O)CCOCCOCCOCCOCCNC(=O)CCc2ccc3n2[B-](F)(F)[N+]2=C(c4ccc[nH]4)C=CC2=C3)ccc1O)C(C)C [Tolterodine-2-NB590]
NPY5R, tracer 0.1μM
  NanoBRET Fold Response: 0.95
NPY5R, tracer 1μM
  NanoBRET Fold Response: 0.95

## CC(C)N(CC[C@H](c1ccccc1)c1cc(CCNC(=O)c2ccc(CNC(=O)CCc3ccc4n3[B-](F)(F)[N+]3=C(c5ccc[nH]5)C=CC3=C4)cc2)ccc1O)C(C)C [Tolterodine-BZ-NB590]
NPY5R, tracer 0.1μM
  NanoBRET Fold Response: 1.05
NPY5R, tracer 1μM
  NanoBRET Fold Response: 0.99

## CCCn1c(=O)c2[nH]c(-c3ccc(OCC(=O)NCCNC(=O)CCOCCNC(=O)c4ccc(CNC(=O)CCc5ccc6n5[B-](F)(F)[N+]5=C(c7ccc[nH]7)C=CC5=C6)cc4)cc3)nc2n(CCC)c1=O [XAC-3-NB590]
NPY5R, tracer 0.1μM
  NanoBRET Fold Response: 1.02
NPY5R, tracer 1μM
  NanoBRET Fold Response: 1.10

From article PMC8151276, “An Integrated Approach toward NanoBRET Tracers for Analysis of GPCR Ligand Engagement” (Molecules, 2021)
